These results are taken from US20200215233A1, “ANTIMICROBIAL COATING” (Boulos & Cooper Pharmaceuticals Pty Ltd, priority 2017, published 2020).

For data set [1], the system named is Staphylococcus aureus (ATCC 29213) (MSSA). Description: Determination of the minimum inhibitory concentration (MSSA). Type of data set: cell-based. The settings on record: 24 h at 37° C., lowest concentration at which greater than 90% inhibition of bacterial growth was observed. Here is the method:
(§1) Three bacterial strains—two Gram-positive bacteria: Staphylococcus aureus (ATCC 29213) (MSSA) and methicillin resistant-S. aureus (MRSA) (ATCC 43300); and a Gram-negative Pseudomonas aeruginosa (ATCC 27853) were used in this study. Bacterial stocks (stored at −80° C. in nutrient broth with 15% glycerol) were streaked onto nutrient agar (Oxoid, Basingstoke, UK) plates for use as the working stock. From the stock an overnight bacterial culture grown in nutrient broth was diluted 1:100 into specific growth media, including tryptic soya broth for S. aureus and Luria-Bertani broth for P. aeruginosa. The final concentration of bacteria was made up to 1×10^5 cfu/mL for the inhibition assays. BCP3 was suspended in respective bacterial media to afford 5 mg/mL suspension. The stock suspension was then twice and ten times diluted to finally obtain concentrations ranging from 8×10^−4-5 mg/mL. Aliquots of 20 μL of each concentration were then added in quadruplicate to wells containing 80 μL of 1×10^5 cfu/mL bacterial solutions in a 96 well plate format for final well concentrations of 1.6×10^−4-1 mg/mL of BCP3. […] After 24 h, 100 μL from each well was transferred into a TOPS 96 well plate (Nunc) and the optical density was measured at 600 nm using a BioTek plate reader. The inhibition of bacterial growth was determined relative to the control (%). […]

For data set [2], the system named is methicillin resistant-S. aureus (MRSA) (ATCC 43300). Description: Determination of the minimum inhibitory concentration (MRSA). Type of data set: cell-based. The settings on record: Staphylococcus aureus, 24 h at 37° C., lowest concentration at which greater than 90% inhibition of bacterial growth was observed. Here is the method: as §1
The test system of data set [3] is Pseudomonas aeruginosa (ATCC 27853). Put plainly: Determination of the minimum inhibitory concentration (P. aeruginosa). Type of data set: cell-based. Here is the method:
as §1

Data set [4] deals with L929 cells. Put plainly: Determination of minimal BCP3 cytotoxic concentration (MTS assay). Type of data set: cell-based. Here is the method: BCP3 was sterilized via incubation in 80% ethanol in a sterile glass vial for 1 h prior to being vacuum dried at 120° C. for 5 h (0.2 mbar). Subsequently BCP3 was suspended in complete minimum essential medium (MEM, containing 10% (v/v) FBS and 1% (v/v) non-essential amino acids) to afford a 5 mg/mL suspension. The stock suspension was then twice and ten times diluted to finally obtain concentrations ranging from 8×10^−4-5 mg/mL. Aliquots of 20 μL of each concentration were then added in quadruplicate to wells previously seeded with L929 cells containing 80 μL of complete MEM (18,000 cells per well, 16 h) in a 96 well plate format for final well concentrations of 1.6×10^−4-1 mg/mL. Additional controls were added to wells containing pre-seeded cells; medium alone, 5%, and 10% (v/v) dimethylsulfoxide (DMSO, Sigma) in medium. The plate was subsequently incubated for 21 h (37° C., 5% CO2). An 3-(4,5-dimethylthiazol-2-yl)-5(3-carboxymethoxyphenyl)-2-(4-sulfophenyl)-2H-tetrazolium (MTS) assay was then utilized to determine cell viability based on metabolic activity of cells. Stock solutions of 4 mM MTS (Promega) in PBS and 3 mM of phenazine methosulfate (PMS, Sigma) in PBS were used to make up a mixture of MTS and PMS reagent. A working assay reagent solution was made up by addition of 2 mL of MTS and 100 μL of PMS stock solutions per 10 mL of complete medium. Media was removed from the sample and control wells and washed with 120 μL of fresh medium; subsequently 100 μL of the assay reagent solution was added to wells then incubated for 3 h at 37° C., 5% CO2. For colorimetric analysis, plates were read in a BioTek plate reader at wavelengths 490 nm and 655 nm. The difference in readings at the two wavelengths was used to calculate cell attachment compared to controls.
(Formazan colour is commonly taken as a measure of viable cells.)

A short description of data set [5]: Solubility of BCP3 in water and base. Type of data set: physicochemical.

A value given as a limit tells only on which side of the number the result lay.

A word on the MIC: it is the smallest concentration in the dilution series that meets the test's criterion for growth inhibition. Low values mean a more susceptible organism, high ones a less susceptible organism.

Consider `O=C(O)c1ccc(/C=C/c2cc(/C=C/c3ccc(C(=O)O)cc3)c(/C=C/c3ccc(C(=O)O)cc3)cc2/C=C/c2ccc(C(=O)O)cc2)cc1` [Formula E], for which the MIC in data set [1] was 15.6 µg/mL; in data set [2] it was 15.6 µg/mL; in data set [3] (Pseudomonas aeruginosa, ATCC27853, P. aeruginosa, 24 h at 37° C., lowest concentration at which greater than 90% inhibition of bacterial growth was observed), greater than 1000 µg/mL. Also, the “maximum inhibition of P. aeruginosa growth” value in data set [3] (at 1 mg/mL BCP3, 24 h) turned out to be 32%. For the same molecule, the “cytotoxicity” value in data set [4] (L929 cells, up to 1 mg/mL) is reported as “non-cytotoxic”. The L929 cell viability in data set [4] (at 1 mg/mL BCP3, 21 h, compared to TOPS control) is 85%; in data set [4] (at all concentrations, 1.6×10^−4-1 mg/mL, 21 h), “above 70%”. For the same molecule, in data set [5] (in the presence of bases such as NaOH), the “solubility in the presence of bases” value is given as “highly soluble”. Besides, the “solubility in water” value in data set [5] (water) is “minimally soluble”.
